In patent publication US8999956B2, “N-[(het)arylalkyl)] pyrazole(thio)carboxamides and their heterosubstituted analogues” (Bayer Intellectual Property GmbH, priority 2010, dated 2015):
Where two headings read alike, the source gives them in different places.

How the values were obtained:
[1] = tested on: Blumeria graminis fsp. hordei; assay: In vivo preventive test on Blumeria graminis (barley); conditions: 500 ppm of active ingredient, evaluated 7 days after inoculation
In short: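 Active compound taken up in N,N-dimethylacetamide with alkylaryl polyglycol ether emulsifier, then diluted in water to the desired concentration. Young barley plants sprayed at the stated application rate; once the coating had dried, plants were dusted with Blumeria graminis f. sp. hordei spores.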

Sphaerotheca fuliginea = assay: In vivo preventive test on Sphaerotheca fuliginea (cucumber); conditions: 500 ppm of active ingredient, evaluated 7 days after inoculation
In short: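 Young cucumber plants sprayed with compound (in DMF with alkylarylpolyglycolether emulsifier, diluted in water) at the stated application rate. Inoculated one day later with aqueous Sphaerotheca fuliginea spore suspension. Plants then held in greenhouse at approximately 23° C and approximately 70% relative humidity.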

Septoria tritici = assay: In vivo preventive test on Septoria tritici (wheat); conditions: 500 ppm of active ingredient, evaluated 21 days after inoculation
In short: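 Compound formulated in N,N-dimethylacetamide with alkylaryl polyglycol ether emulsifier and diluted in water to the stated rate. Young wheat plants sprayed preventively; after the deposit dried, they were inoculated with a Septoria tritici spore suspension.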

Uromyces appendiculatus = assay: In vivo preventive test on Uromyces appendiculatus (beans); conditions: 100 ppm of active ingredient, evaluated 10 days after inoculation
In short: (§1)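 Young plants sprayed preventively at the stated application rate with compound dissolved in acetone/N,N-dimethylacetamide plus alkylaryl polyglycol ether emulsifier and diluted with water to the desired concentration.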

Puccinia triticina = assay: In vivo preventive test on Puccinia triticina (wheat); conditions: Table K, 500 ppm of active ingredient, evaluated 8 days after inoculation
Venturia inaequalis = assay: In vivo preventive test on Venturia inaequalis (apple scab); conditions: 100 ppm of active ingredient, evaluated 10 days after inoculation
In short: as §1

Phakopsora pachyrhizi = assay: In vivo protective test on Phakopsora pachyrhizi (soybeans); conditions: Table N, 250 ppm of active ingredient, evaluated 11 days after inoculation
Aspergillus parasiticus = assay: microbe, parasite or virus in culture; format: cell-based
[2] = tested on: aflatoxines produced by Aspergillus parasiticus; assay: microbe, parasite or virus in culture; format: cell-based
Alternaria solani = assay: In vivo preventive test on Alternaria solani (tomato); conditions: 500 ppm of active ingredient, evaluated 7 days after inoculation
In short: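 Preventive set-up: Alternaria solani spores, as aqueous suspension, applied to young plants one day after spraying. Spray contained active compound formulated with N,N-dimethylformamide and emulsifier, water-diluted to the desired application rate.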

[3] = log P by HPLC on reversed-phase column (EEC Directive 79/831 Annex V.A8); format: physicochemical
Protocol: In table 1, the log P values were determined in accordance with EEC Directive 79/831 Annex V.A8 by HPLC (High Performance Liquid Chromatography) on a reversed-phase column (C18), using the method described below: Temperature: 40° C.; […]

Fusarium graminearum = conditions: in vivo
Pyrenophora teres = assay: In vivo preventive test on Pyrenophora teres (barley); conditions: 500 ppm of active ingredient, evaluated 7-9 days after inoculation
In short: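 Preventive test: young barley plants received a water-diluted spray of compound formulated with DMF solvent plus alkylaryl polyglycol ether emulsifier, at the stated rate. Inoculation with an aqueous spore suspension of Pyrenophora teres followed one day after spraying.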

Leptosphaeria nodorum = assay: In vivo preventive test on Leptosphaeria nodorum (wheat); conditions: 500 ppm of active ingredient, evaluated 7-9 days after inoculation
In short: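 Plants were inoculated with aqueous L. nodorum spores one day after a protective spray. The spray contained the compound at the stated rate, as a water-diluted concentrate in N,N-dimethylacetamide plus alkylaryl polyglycol ether emulsifier.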

Botrytis cinerea = assay: In vivo preventive test on Botrytis cinerea (beans)
In short: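 Young bean plants sprayed preventively with compound in acetone/dimethylacetamide/emulsifier diluted in water; after drying, each leaf inoculated with 2 agar pieces bearing Botrytis cinerea. Kept dark at 20° C, 100% humidity; lesion size scored at 2 days as % efficacy (0% = untreated, 100% = no disease).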

[4] = Table L, 500 ppm of active ingredient, lesion size 2 days after inoculation

SMILES | Efficacy [1] | Efficacy (Sphaerotheca fuliginea) | Efficacy (Septoria tritici) | Efficacy (Uromyces appendiculatus) | Efficacy (Puccinia triticina) | Efficacy (Venturia inaequalis) | Efficacy (Phakopsora pachyrhizi) | % Inhibition of fungal growth at 50 μM (Aspergillus parasiticus) | % Inhibition of Aflatoxin at 50 μM [2] | Efficacy (Alternaria solani) | logP [3] | Efficacy (Fusarium graminearum) | Efficacy (Pyrenophora teres) | Efficacy (Leptosphaeria nodorum) | Efficacy (Botrytis cinerea; [4]) | % Inhibition of fungal growth at 50 μM (Aspergillus parasiticus; 50 µM) | % Inhibition of Aflatoxin at 50 μM ([2]; 50 µM) | Efficacy (Botrytis cinerea; 500 ppm of active ingredient, lesion size 2 days after inoculation) | Efficacy (Botrytis cinerea; Table L4, dose 500 ppm, comparison with des-fluoro analogue)
CC(CCc1ccccc1C(F)(F)F)N(C(=O)c1c(C(F)F)nn(C)c1F)C1CC1 (stereo not shown) [Example 221] | 100% | 100% | 100% | 100% | 100% | 100% | 80% | 100% | 100% | 100% | 4.09 | 100% | 95% |  |  |  |  |  | 
CC(COc1ccc(Cl)cc1Cl)N(C(=O)c1c(C(F)F)nn(C)c1F)C1CC1 (stereo not shown) [Example 187] | 100% | 100% | 100% | 95% | 95% | 100% |  | 100% | 100% |  | 4.16 | 100% | 100% | 90% |  |  |  |  | 
CC(CCc1ccc(Cl)c(Cl)c1)N(C(=O)c1c(C(F)F)nn(C)c1F)C1CC1 (racemic) [Example 129] | 100% | 100% | 80% | 99% | 70% | 100% |  | 100% | 100% | 100% | 4.44 | 100% | 100% | 100% |  |  |  |  | 
Cn1nc(C(F)F)c(C(=O)N(C[Si](C)(C)Cc2ccccc2)C2CC2)c1F [Example 288] | 100% | 94% | 90% | 100% | 95% | 100% |  | 99% | 100% | 100% | 4.03 | 100% | 100% | 100% | 100% |  |  |  | 
Cn1nc(C(F)F)c(C(=O)N(C2CC2)C2CCCCC2Cc2ccccc2)c1F (mixture of isomers) [Example 243] | 100% | 100% | 100% | 98% | 100% | 100% |  | 100% | 100% | 100% |  | 100% | 100% | 100% | 90% |  |  |  | 
Cn1nc(C(F)F)c(C(=O)N(C2CC2)C2CCCCC2Oc2ccccc2)c1F (stereo not shown) [Example 244] | 100% | 100% | 100% | 100% | 100% | 100% | 98% |  |  | 100% | 3.89 | 100% | 95% | 95% | 88% | 82% | 99% | at least 85% | 88%
